Some results are limits rather than exact numbers.

From ChEMBL document CHEMBL1141928, “Non-peptidic alpha(v)beta3 antagonists containing indol-1-yl propionic acids” (Bioorg Med Chem Lett, 2005) come the findings set out here.

Chain of Integrin alpha-V/beta-3 (P05106 27-788 limits assumed): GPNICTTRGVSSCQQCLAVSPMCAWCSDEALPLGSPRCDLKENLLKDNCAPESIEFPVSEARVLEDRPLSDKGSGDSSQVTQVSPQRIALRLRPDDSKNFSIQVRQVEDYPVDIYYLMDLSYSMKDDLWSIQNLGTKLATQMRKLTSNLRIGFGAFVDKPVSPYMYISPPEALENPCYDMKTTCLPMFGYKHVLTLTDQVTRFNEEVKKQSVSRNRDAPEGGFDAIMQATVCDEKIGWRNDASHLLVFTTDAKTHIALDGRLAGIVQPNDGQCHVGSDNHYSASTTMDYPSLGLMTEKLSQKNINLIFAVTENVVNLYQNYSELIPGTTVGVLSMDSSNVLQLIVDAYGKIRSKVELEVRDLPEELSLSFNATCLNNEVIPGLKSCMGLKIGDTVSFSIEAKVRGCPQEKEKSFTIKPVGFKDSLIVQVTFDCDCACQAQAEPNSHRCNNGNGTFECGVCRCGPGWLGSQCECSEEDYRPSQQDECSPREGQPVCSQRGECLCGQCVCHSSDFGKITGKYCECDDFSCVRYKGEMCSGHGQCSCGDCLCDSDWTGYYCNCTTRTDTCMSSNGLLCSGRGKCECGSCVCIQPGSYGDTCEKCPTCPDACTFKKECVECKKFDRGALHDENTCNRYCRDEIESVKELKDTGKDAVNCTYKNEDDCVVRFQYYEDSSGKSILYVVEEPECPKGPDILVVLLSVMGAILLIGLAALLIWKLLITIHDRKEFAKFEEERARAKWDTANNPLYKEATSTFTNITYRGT
Chain of Integrin alpha-V/beta-3 (P06756 31-889 limits assumed): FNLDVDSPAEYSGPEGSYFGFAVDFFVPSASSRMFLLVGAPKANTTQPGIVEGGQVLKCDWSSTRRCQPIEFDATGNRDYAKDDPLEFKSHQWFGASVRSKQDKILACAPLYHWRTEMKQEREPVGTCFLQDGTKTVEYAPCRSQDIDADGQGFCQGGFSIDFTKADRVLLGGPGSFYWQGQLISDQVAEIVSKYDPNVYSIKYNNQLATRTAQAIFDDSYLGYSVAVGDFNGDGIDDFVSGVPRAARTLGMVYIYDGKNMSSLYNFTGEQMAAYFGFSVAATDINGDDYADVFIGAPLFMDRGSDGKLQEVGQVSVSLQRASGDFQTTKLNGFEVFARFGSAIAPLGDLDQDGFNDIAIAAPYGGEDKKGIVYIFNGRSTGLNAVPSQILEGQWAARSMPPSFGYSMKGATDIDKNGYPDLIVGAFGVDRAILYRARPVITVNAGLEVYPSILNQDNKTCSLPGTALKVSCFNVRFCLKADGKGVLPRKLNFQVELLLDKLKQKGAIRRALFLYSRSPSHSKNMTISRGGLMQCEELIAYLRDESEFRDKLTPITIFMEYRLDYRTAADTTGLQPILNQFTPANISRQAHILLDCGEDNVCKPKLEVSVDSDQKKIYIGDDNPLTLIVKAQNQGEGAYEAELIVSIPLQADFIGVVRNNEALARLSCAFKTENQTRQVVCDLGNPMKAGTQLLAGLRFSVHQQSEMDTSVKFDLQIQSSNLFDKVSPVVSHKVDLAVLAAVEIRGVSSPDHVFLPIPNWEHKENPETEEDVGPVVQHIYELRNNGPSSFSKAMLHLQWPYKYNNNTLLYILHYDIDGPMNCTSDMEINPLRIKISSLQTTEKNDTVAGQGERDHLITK
Chain of Integrin alpha-V/beta-3 (P06756 891-1048 limits assumed): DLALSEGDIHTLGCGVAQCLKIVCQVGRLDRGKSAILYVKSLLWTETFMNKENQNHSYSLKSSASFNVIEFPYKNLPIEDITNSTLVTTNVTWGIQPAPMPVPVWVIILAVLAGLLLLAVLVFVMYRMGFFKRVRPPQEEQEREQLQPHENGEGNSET

Tested on in one series: not listed separately
In words: Half life in mice after intravenous dosage. The class given is ADME, organism-based. Particulars: mouse, in vivo.
What is called half-life is how long it takes for the measured level to halve. Lower therefore signals fast loss. `O=C(O)CC(c1ccc2c(c1)OCO2)n1ccc2cc(OCCc3ccc4c(n3)NCCC4)ccc21` (centres undefined): the half-life was 1.5 h.

Tested on in a further series: not listed separately
Put plainly: Clearance in mice after intravenous dosage. In kind it is ADME, organism-based. Particulars: mouse, in vivo.
Broadly, the clearance is a measure of how efficiently the substance is removed, as volume per time. High values mean a high capacity for elimination, low ones a low capacity for elimination. The molecule `O=C(O)CC(c1ccc2c(c1)OCO2)n1ccc2cc(OCCc3ccc4c(n3)NCCC4)ccc21` (centres undefined) came in with a clearance of 13 mL/min/kg.

Tested on in the next series: not listed separately
Put plainly: Bioavailability in mice after […] dosage. The class given is ADME, organism-based. The note with it: mouse, in vivo.
What is called bioavailability is dose-corrected exposure relative to a reference, in per cent. Low readings indicate poor availability, high ones good availability. As to `O=C(O)CC(c1ccc2c(c1)OCO2)n1ccc2cc(OCCc3ccc4c(n3)NCCC4)ccc21` (centres undefined), the bioavailability turned out to be 73%.

The next series concerns the target Integrin alpha-V/beta-3 (Homo sapiens, UniProt P05106+P06756). In words: Inhibitory concentration against alphaV-beta3 integrin.
Details: not given
In kind it is protein-complex assay.
As usually defined, the IC50 is the concentration that gives 50% inhibition. A high value points to weaker potency in that assay. With `O=C(O)CC(c1ccc2c(c1)OCO2)n1ccc2cc(OCCc3ccc4c(n3)NCCC4)ccc21` (centres undefined), half-maximal inhibition (IC50) was put at 0.38 nM.

For the molecule `COc1ccccc1C(CC(=O)O)n1ccc2cc(OCCc3ccc4c(n3)NCCC4)ccc21` (centres undefined), inhibition was half-maximal at 1.1 nM (IC50).

Take `N#Cc1cncc(C(CC(=O)O)n2ccc3cc(OCCc4ccc5c(n4)NCCC5)ccc32)c1` (centres undefined): the IC50 came to 0.26 nM.

Regarding `O=C(O)CC(c1ccc2ccccc2c1)n1ccc2cc(OCCc3ccc4c(n3)NCCC4)ccc21` (centres undefined), half-maximal inhibition (IC50) was put at 37 nM.

As for `CNc1cccc(CCOc2ccc3c(ccn3CCC(=O)O)c2)n1`, the concentration for half-maximal inhibition (IC50) was found to be 36 nM.

Molecule `O=C(O)CC(c1cccc2ccccc12)n1ccc2cc(OCCc3ccc4c(n3)NCCC4)ccc21` (centres undefined) showed an IC50 of 37 nM.

Molecule `O=C(O)CC(c1ccccc1)n1ccc2cc(OCCc3ccc4c(n3)NCCC4)ccc21` (centres undefined) showed an IC50 of 1 nM.

Turning to `COc1cccc(C(CC(=O)O)n2ccc3cc(OCCc4ccc5c(n4)NCCC5)ccc32)c1` (centres undefined), the IC50 is 0.8 nM.

Take `CCCC(CC(=O)O)n1ccc2cc(OCCc3ccc4c(n3)NCCC4)ccc21` (centres undefined): 5 nM corresponded to half-maximal inhibition (IC50).

As to `O=C(O)C(Cc1ccccc1)Cn1ccc2cc(OCCCNc3ccccn3)ccc21` (centres undefined), the IC50 worked out at 1900 nM.

On to `COc1cncc(C(CC(=O)O)n2ccc3cc(OCCc4ccc5c(n4)NCCC5)ccc32)c1` (centres undefined), for which the IC50 stood at 0.25 nM.

Molecule `COc1ccc(C(CC(=O)O)n2ccc3cc(OCCc4ccc5c(n4)NCCC5)ccc32)cc1` (centres undefined) returned an IC50 of 0.7 nM.

As to `CCCC(Cn1ccc2cc(OCCCNc3ccccn3)ccc21)C(=O)O` (centres undefined), it took 2000 nM to reach half-maximal inhibition (IC50).

Take `O=C(O)CC(c1ccncc1)n1ccc2cc(OCCc3ccc4c(n3)NCCC4)ccc21` (centres undefined): 0.9 nM corresponded to half-maximal inhibition (IC50).

As to `O=C(O)CC(c1ccc(-c2ccccc2)cc1)n1ccc2cc(OCCc3ccc4c(n3)NCCC4)ccc21` (centres undefined), the IC50 was found to be 40 nM.

In turn, `O=C(O)CC(c1cccnc1)n1ccc2cc(OCCc3ccc4c(n3)NCCC4)ccc21` (centres undefined) showed an IC50 of 0.25 nM.

The molecule `O=C(O)CC(c1cccnc1)n1ccc2cc(OCC(F)(F)c3ccc4c(n3)NCCC4)ccc21` (centres undefined) returned an IC50 of 130 nM.

Turning to `O=C(O)CC(c1ccccc1Cl)n1ccc2cc(OCCc3ccc4c(n3)NCCC4)ccc21` (centres undefined), the IC50 turned out to be 55 nM.

`CCCC(CC(=O)O)n1ccc2cc(NC(=O)Cc3ccc4c(n3)NCCC4)ccc21` (centres undefined) registered an IC50 of 78 nM.

Molecule `O=C(O)CC(c1ccccn1)n1ccc2cc(OCCc3ccc4c(n3)NCCC4)ccc21` (centres undefined) gave an IC50 of 1.2 nM.

Regarding `O=C(O)c1ccccc1-n1ccc2cc(OCCCNc3ccccn3)ccc21`, the IC50 was greater than 20000 nM.

Molecule `CCCC(CC(=O)O)n1ccc2cc(CCCc3ccc4c(n3)NCCC4)ccc21` (centres undefined) had an IC50 of 23 nM.

Molecule `O=C(O)CC(c1cccc(Cl)c1)n1ccc2cc(OCCc3ccc4c(n3)NCCC4)ccc21` (centres undefined) displayed an IC50 of 0.5 nM.

As to `O=C(O)CC(c1ccc(F)cc1)n1ccc2cc(OCCc3ccc4c(n3)NCCC4)ccc21` (centres undefined), it took 0.7 nM to reach half-maximal inhibition (IC50).

As for `O=C(O)CC(c1cnc2ccccc2c1)n1ccc2cc(OCCc3ccc4c(n3)NCCC4)ccc21` (centres undefined), the IC50 was determined as 0.38 nM.

The molecule `CS(=O)(=O)c1ccc(C(CC(=O)O)n2ccc3cc(OCCc4ccc5c(n4)NCCC5)ccc32)cn1` (centres undefined) had an IC50 of 0.3 nM.

For the molecule `O=C(O)CC(c1ccc2c(c1)OCO2)n1ccc2cc(OCCc3ccc4c(n3)NCCO4)ccc21` (centres undefined), the IC50 came to 8 nM.

Molecule `O=C(O)c1ccc(-n2ccc3cc(OCCCNc4ccccn4)ccc32)cc1` showed an IC50 greater than 20000 nM.

`CC(Cn1ccc2cc(OCCCNc3ccccn3)ccc21)C(=O)O` (centres undefined) returned an IC50 of 460 nM.

For the molecule `CS(=O)(=O)c1cncc(C(CC(=O)O)n2ccc3cc(OCCc4ccc5c(n4)NCCC5)ccc32)c1` (centres undefined), half-maximal inhibition (IC50) was put at 0.46 nM.

As for `O=C(O)CC(c1ccccc1)n1ccc2cc(OCCONC3=NCCN3)ccc21` (centres undefined), the IC50 was 200 nM.
